Assay results published in article PMC12467068, “Design, Synthesis, and Computational Insights into PKMYT1 Inhibitors for the Treatment of Breast Cancer” (Biomedicines, 2025).

Tests used:
PKMYT1 = target: T1, PKMYT1 (Homo sapiens, UniProt Q99640); test: PKMYT1 enzyme inhibition assay (LanthaScreen Eu kinase binding method); details: mean of two separate experiments
T1 sequence (Q99640 1-499): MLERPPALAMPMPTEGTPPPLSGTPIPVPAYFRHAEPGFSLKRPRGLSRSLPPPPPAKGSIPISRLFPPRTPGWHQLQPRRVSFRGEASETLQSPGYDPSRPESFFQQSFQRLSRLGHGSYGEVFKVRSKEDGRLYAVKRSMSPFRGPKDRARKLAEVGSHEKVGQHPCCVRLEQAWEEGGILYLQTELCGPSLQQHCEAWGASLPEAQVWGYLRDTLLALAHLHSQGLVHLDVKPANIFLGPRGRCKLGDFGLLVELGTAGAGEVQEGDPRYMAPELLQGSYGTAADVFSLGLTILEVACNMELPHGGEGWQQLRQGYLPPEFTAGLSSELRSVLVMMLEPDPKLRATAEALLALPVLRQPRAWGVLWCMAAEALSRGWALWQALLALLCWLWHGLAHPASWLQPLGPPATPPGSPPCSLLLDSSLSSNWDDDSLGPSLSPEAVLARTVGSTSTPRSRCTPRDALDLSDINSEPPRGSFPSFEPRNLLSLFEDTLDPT
Experimental: The PKMYT1 kinase assay was conducted with the LanthaScreen™ Eu kinase binding method, as provided by Thermo Fisher Scientific (Waltham, MA, USA). Initially, compounds were prepared at a concentration of 4 mM in DMSO and subsequently diluted to various concentrations in 1X buffer. […] The plate was then incubated in the dark at 25 °C for 1 h, and fluorescence signals were recorded at 665 nm and 615 nm.

HCC1569 cells = test: Cell proliferation assay (CCK-8), HCC1569; assay type: cell-based; details: for IC50: Homo sapiens, HCC1569, 120 h, CCNE1-amplified breast cancer cells, 5-day incubation, mean ± SD, n = 3
Experimental: (§1) HCC1569 and OVCAR3 cells (2 × 10^3/well) were seeded in 96-well plates and cultured for 24 h at 37 °C, 5% CO2. Compounds at varying concentrations were added, followed by 5-day incubation. Cell viability was assessed using Cell Counting Kit-8 (CCK-8) with absorbance measurement at 450 nm. HCC1569 (BNCC341698) was purchased from BNCC and OVCAR3 (CL-0178) was purchased from Procell.

OVCAR3 cells = test: Cell proliferation assay (CCK-8), OVCAR3; assay type: cell-based; details: for IC50: Homo sapiens, OVCAR-3, 120 h, CCNE1-amplified ovarian cancer cells, 5-day incubation, mean ± SD, n = 3
Experimental: as §1

A549 cells = test: Anti-proliferative activity in low-expressing CCNE1 cells A549; assay type: cell-based; details: Homo sapiens, A549; lung cancer cells, low CCNE1 expression; mean ± SD, n = 3
BEAS-2B cells = test: Anti-proliferative activity in normal lung epithelial cells BEAS-2B; assay type: cell-based; details: Homo sapiens, BEAS-2B; lung epithelial cells; mean ± SD, n = 3

| IC50 (PKMYT1) [nM] | IC50 (HCC1569 cells) [nM] | IC50 (OVCAR3 cells) [nM] | Structure (SMILES) | also measured |
| --- | --- | --- | --- | --- |
| 220 |  |  | Cc1ccc(O)c(C)c1NC(=O)c1cnc(Nc2ccccc2)nc1 [Compound M1] |  |
| 26 |  |  | Cc1ccc(O)c(C)c1NC(=O)c1cnc(Nc2ccccc2)nc1N [MY-1, 4-amino-2-(phenylamino)-N-(3-hydroxy-2,6-dimethylphenyl)pyrimidine-5-carboxamide] |  |
| 150 |  |  | Cc1ccc(O)c(C)c1NC(=O)c1cnc(Nc2ccccc2Cl)nc1N [MY-2, 4-amino-2-((2-chlorophenyl)amino)-N-(3-hydroxy-2,6-dimethylphenyl)pyrimidine-5-carboxamide] |  |
| 17 |  |  | Cc1ccc(O)c(C)c1NC(=O)c1cnc(Nc2cccc(Cl)c2)nc1N [MY-3, 4-amino-2-((3-chlorophenyl)amino)-N-(3-hydroxy-2,6-dimethylphenyl)pyrimidine-5-carboxamide] |  |
| 16 |  |  | Cc1ccc(O)c(C)c1NC(=O)c1cnc(Nc2ccc(Cl)cc2)nc1N [MY-4, 4-amino-2-((4-chlorophenyl)amino)-N-(3-hydroxy-2,6-dimethylphenyl)] |  |
| 20 |  |  | Cc1ccc(O)c(C)c1NC(=O)c1cnc(Nc2ccc(F)cc2)nc1N [MY-5, 4-amino-2-((4-fluorophenyl)amino)-N-(3-hydroxy-2,6-dimethylphenyl)pyrimidine-5-carboxamide] |  |
| 36 |  |  | Cc1ccc(O)c(C)c1NC(=O)c1cnc(Nc2ccc(Br)cc2)nc1N [MY-6, 4-amino-2-((4-bromophenyl)amino)-N-(3-hydroxy-2,6-dimethylphenyl)pyrimidine-5-carboxamide] |  |
| 28 |  |  | Cc1ccc(Nc2ncc(C(=O)Nc3c(C)ccc(O)c3C)c(N)n2)cc1 [MY-7, 4-amino-2-(p-tolylamino)-N-(3-hydroxy-2,6-dimethylphenyl)pyrimidine-5-carboxamide] |  |
| 46 |  |  | Cc1ccc(O)c(C)c1NC(=O)c1cnc(Nc2ccc(C(C)C)cc2)nc1N [MY-8, 4-amino-2-((4-isopropylphenyl)amino)-N-(3-hydroxy-2,6-dimethylphenyl)pyrimidine-5-carboxamide] |  |
| 32 |  |  | Cc1ccc(O)c(C)c1NC(=O)c1cnc(Nc2ccc(-c3ccccc3)cc2)nc1N [MY-9, 4-amino-2-([1,1′-biphenyl]-4-ylamino)-N-(3-hydroxy-2,6-dimethylphenyl)pyrimidine-5-carboxamide] |  |
| 8.6 | 2950 ± 320 | 810 ± 60 | Cc1ccc(O)c(C)c1NC(=O)c1cnc(Nc2ccc(N3CCOCC3)cc2)nc1N [MY-10, 4-amino-2-((4-morpholinophenyl)amino)-N-(3-hydroxy-2,6-dimethylphenyl)pyrimidine-5-carboxamide] |  |
| 7.1 | 3560 ± 590 | 2120 ± 330 | Cc1ccc(O)c(C)c1NC(=O)c1cnc(Nc2ccc(N3CCN(C)CC3)cc2)nc1N [MY-11, 4-amino-2-((4-(4-methylpiperazin-1-yl)phenyl)amino)-N-(3-hydroxy-2,6-dimethylphenyl)pyrimidine-5-carboxamide] |  |
| 5.1 | 6350 ± 310 | 740 ± 110 | Cc1ccc(O)c(C)c1NC(=O)c1cnc(Nc2ccc([N+](=O)[O-])cc2)nc1N [MY-12, 4-amino-2-((4-nitrophenyl)amino)-N-(3-hydroxy-2,6-dimethylphenyl)pyrimidine-5-carboxamide] |  |
| 7.9 | > 8000 | > 8000 | Cc1ccc(O)c(C)c1NC(=O)c1cnc(Nc2ccc(P(C)(C)=O)cc2)nc1N [MY-13, 4-amino-2-((4-(dimethylphosphoryl)phenyl)amino)-N-(3-hydroxy-2,6-dimethylphenyl)pyrimidine-5-carboxamide] | anti-proliferative activity (in words) (HCC1569 cells; HCC1569): complete loss of activity; anti-proliferative activity (in words) (OVCAR3 cells; OVCAR3): complete loss of activity |
| 15 |  |  | Cc1ccc(O)c(C)c1NC(=O)c1cnc(Nc2ccc(C(=O)N(C)C)cc2)nc1N [MY-15, 4-amino-2-((4-(dimethylcarbamoyl)phenyl)amino)-N-(3-hydroxy-2,6-dimethylphenyl)pyrimidine-5-carboxamide] |  |
| 6.1 | > 8000 | 1190 ± 90 | Cc1ccc(O)c(C)c1NC(=O)c1cnc(Nc2ccc(C(=O)N3CCOCC3)cc2)nc1N [MY-16, 4-amino-2-((4-(morpholine-4-carbonyl)phenyl)amino)-N-(3-hydroxy-2,6-dimethylphenyl)pyrimidine-5-carboxamide] |  |
| 3.3 | > 8000 | 980 ± 70 | Cc1ccc(O)c(C)c1NC(=O)c1cnc(Nc2ccc3c(c2)CN(C)C3=O)nc1N [MY-17, 4-amino-2-((2-methyl-1-oxoisoindolin-5-yl)amino)-N-(3-hydroxy-2,6-dimethylphenyl)pyrimidine-5-carboxamide] |  |
| 8.5 | 6970 ± 1090 | 3310 ± 180 | Cc1ccc(O)c(C)c1NC(=O)c1cnc(Nc2ccc3ccoc3c2)nc1N [MY-18, 4-amino-2-(benzofuran-6-ylamino)-N-(3-hydroxy-2,6-dimethylphenyl)pyrimidine-5-carboxamide] |  |
| 3.5 | 3140 ± 280 | 1250 ± 60 | Cc1ccc(O)c(C)c1NC(=O)c1cnc(Nc2ccc3ncsc3c2)nc1N [MY-19, 4-amino-2-(benzo[d]thiazol-6-ylamino)-N-(3-hydroxy-2,6-dimethylphenyl)pyrimidine-5-carboxamide] |  |
| 5.7 | 3540 ± 210 | 600 ± 90 | Cc1ccc(O)c(C)c1NC(=O)c1cnc(Nc2ccc3scnc3c2)nc1N [MY-20, 4-amino-2-(benzo[d]thiazol-5-ylamino)-N-(3-hydroxy-2,6-dimethylphenyl)pyrimidine-5-carboxamide] |  |
| 12 |  |  | Cc1ccc(O)c(C)c1NC(=O)c1cnc(Nc2ccc3occc3c2)nc1N [MY-21, 4-amino-2-(benzofuran-5-ylamino)-N-(3-hydroxy-2,6-dimethylphenyl)pyrimidine-5-carboxamide] |  |
|  | 110 ± 20 | 90 ± 10 | Cc1cc2c(C(N)=O)c(N)n(-c3c(C)ccc(O)c3C)c2nc1C [RP-6306, reference compound] | IC50 (A549 cells): 1450 ± 230 nM; IC50 (BEAS-2B cells): 2600 ± 540 nM |
